Data from patent US7563895B2, “Quinoxaline compounds” (Janssen Pharmaceutica, N.V., priority 2003, dated 2009).

Legend:
CCK2 receptor [1] = molecular target: T1, CCK2 receptor (Homo sapiens, UniProt P32239); experiment: CCK2 receptor radioligand binding assay ([125I]-BH-CCK-8S, HEKZFP cell membranes); details: competition with [125I]-BH-CCK-8S, membranes of induced HEKZFP cells, 60 min at 21±3° C., Cheng-Prusoff
T1 construct: Membranes were prepared from the HEKZFP cells after induction; endogenous in cells; host or cells: HEKZFP cells (T-REx-293 with tet-inducible ZFP-VP16 specific for the CCK2R gene), doxycycline-induced; membrane preparation
T1 sequence (P32239 1-447): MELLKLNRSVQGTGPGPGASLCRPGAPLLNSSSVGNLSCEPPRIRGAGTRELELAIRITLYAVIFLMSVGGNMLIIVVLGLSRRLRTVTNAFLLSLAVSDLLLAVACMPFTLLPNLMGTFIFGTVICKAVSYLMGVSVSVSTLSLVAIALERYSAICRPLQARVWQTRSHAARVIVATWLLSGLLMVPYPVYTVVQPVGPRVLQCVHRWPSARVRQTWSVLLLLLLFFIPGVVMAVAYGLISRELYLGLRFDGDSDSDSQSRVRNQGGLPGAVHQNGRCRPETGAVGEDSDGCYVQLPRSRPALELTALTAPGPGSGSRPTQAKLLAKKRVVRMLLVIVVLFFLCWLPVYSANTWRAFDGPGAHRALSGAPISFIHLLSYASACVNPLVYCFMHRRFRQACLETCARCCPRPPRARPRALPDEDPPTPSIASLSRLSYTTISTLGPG
Description: Zinc Finger Proteins (ZFP) specific for the CCK2R gene were identified by Sangamo Biosciences. The ZFP domain was fused with the herpes simplex virus VP16 activation domain, and the fusion protein was subsequently cloned into the pcDNA3 mammalian expression vector (Invitrogen, San Diego, Calif.). […] After 2 weeks of selection in culture medium containing […] Zeocin (Invitrogen), sixty drug-resistant stable clones were isolated and analyzed for ZFP expression as well as CCK2R induction upon addition of doxycycline to the culture medium.
HEKZFP cells were grown in DMEM supplemented with L-glutamine (2 mM), penicillin (50 units/mL) and streptomycin (50 μg/mL) and 10% FBS (v/v).
Membranes were prepared from the HEKZFP cells after induction. […] The thawed pellets were homogenized using a Polytron PT-10 (7×1 s). The homogenates were centrifuged for 5 min at 1500 rpm (600×g), and the resulting pellets were discarded. The supernatants were re-centrifuged in order to collect the receptor-membrane pellets (25 min 15,000 rpm; 39,800×g), which were re-suspended in buffer A.
The assay preparation was incubated for 1 h at 21±3° C., and then the assay was terminated by rapid filtration of the preparation under reduced pressure. The loaded filters were washed three times using undiluted PBS (100 μL), and then 100 μL of scintillation fluid was added to the filter plate. Bound radioactivity was determined using a Topcount (Packard BioScience, Meriden, Conn.) with a count time of 1 min. […] To validate the radioligand concentration and incubation time for the assay, saturation and kinetic binding studies were also conducted (see M. F. Morton, The Pharmacological Characterization of Cholecystokinin Receptors in the Human Gastrointestinal Tract. PhD Thesis, University of London, 2000). […] The assay was then terminated according to the procedure outlined above.
The pKi values were determined using the equation of Y.-C.
To circumvent problems associated with computer-assisted data analysis of compounds with low affinity, the data obtained in the current study were weighed according to a method described by Morton. In brief, 100% and 0% specific binding were defined independently using total binding and binding obtained in the presence of a high concentration of the reference antagonist, 2-NAP.

CCK2 receptor [2] = molecular target: T2, CCK2 receptor (Cavia porcellus, UniProt H0VZC5); experiment: Guinea-pig gastric corpeal muscle assay (pentagastrin-induced contraction of isolated muscle strips); details: pentagastrin concentration-response curves
T2 construct: strips of muscle were dissected and suspended in isolated tissue organ baths; from tissue; host or cells: guinea-pig gastric corpeal muscle strips
T2 sequence (H0VZC5 1-426): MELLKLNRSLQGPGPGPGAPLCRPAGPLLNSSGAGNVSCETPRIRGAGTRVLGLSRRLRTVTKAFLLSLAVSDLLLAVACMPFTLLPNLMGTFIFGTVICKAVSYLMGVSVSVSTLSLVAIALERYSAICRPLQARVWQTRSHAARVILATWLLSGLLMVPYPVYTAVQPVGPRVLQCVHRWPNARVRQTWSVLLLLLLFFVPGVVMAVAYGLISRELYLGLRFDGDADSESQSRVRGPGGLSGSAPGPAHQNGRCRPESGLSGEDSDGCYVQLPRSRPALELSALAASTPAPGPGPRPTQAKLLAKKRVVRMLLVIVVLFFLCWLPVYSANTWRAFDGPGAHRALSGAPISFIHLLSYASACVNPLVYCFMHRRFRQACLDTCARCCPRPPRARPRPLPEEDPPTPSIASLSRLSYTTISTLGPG
Description: Guinea-Pig Gastric Corpeal Muscle Assay
CCK2 receptor-mediated muscle contraction was measured in an isolated muscle-strip assay of guinea-pig gastric corpeal muscle according to the methods described by Roberts et al. (S. P. Roberts, E. A. Harper, G. F. Watt, V. P. Gerskowitch, R. A. Hull, N. P. Shankley, and J. W. Black, Br. J. Pharmacol., 1996, 118(7): 1779-1789). In brief, strips of muscle were dissected and suspended in isolated tissue organ baths for isotonic muscle contraction recording. The baths, containing Krebs-Henseleit solution, were maintained at 24° C. and gassed continuously with 95% O2 and 5% CO2. CCK1 receptors known to be present in this assay were blocked using a selective concentration of a suitable CCK1 receptor antagonist (e.g. 2-NAP). The effectiveness of the test compounds was assessed by measuring their effect on contractile concentration-response curves obtained using a well-characterized surrogate hormone gastrin (pentagastrin).

Ki (CCK2 receptor [1]) [nM]	behaviour in the assay (mode of antagonism) (CCK2 receptor [2])	Kb (CCK2 receptor [2]; CCK1 receptors blocked, 24° C., read-out: pKB value (converted)) [nM]	SMILES
20	competitive antagonist	1.58	C[C@@H](NC(=O)c1ccc(Br)cc1NS(=O)(=O)c1cccc2nccnc12)c1ccc(F)cc1F [Example 2, (R)-4-Bromo-N-[1-(2,4-difluoro-phenyl)-ethyl]-2-(quinoxaline-5-sulfonylamino)-benzamide]
39.8	–	–	O=C(N[C@H](CF)c1ccc(F)cc1F)c1ccc(Cl)cc1NS(=O)(=O)c1cccc2nccnc12 [Example 78, (S)-4-Chloro-N-[1-(2,4-difluoro-phenyl)-2-fluoro-ethyl]-2-(quinoxaline-5-sulfonylamino)-benzamide]
251	–	–	O=C(c1ccc(Cl)cc1NS(=O)(=O)c1cccc2nccnc12)N1CCCCC1 [Example 79, Quinoxaline-5-sulfonic acid [5-chloro-2-(piperidine-1-carbonyl)-phenyl]-amide]
79.4	–	–	O=C(c1ccc(C(F)(F)F)cc1NS(=O)(=O)c1cccc2nccnc12)N1CCOCC1 [Example 92, Quinoxaline-5-sulfonic acid [2-(morpholine-4-carbonyl)-5-trifluoromethyl-phenyl]-amide]
398	–	–	O=C(c1ccc(I)cc1NS(=O)(=O)c1cccc2nccnc12)N1CCOc2cc(F)cc(F)c2C1 [Example 94, Quinoxaline-5-sulfonic acid [2-(6,8-difluoro-2,3-dihydro-5H-benzo[f][1,4]oxazepine-4-carbonyl)-5-iodo-phenyl]-amide]
